Experimental data reported in patent US20100298166A1, “CELL POPULATIONS FOR POLYPEPTIDE ANALYSIS AND USES OF SAME” (priority 2008, published 2010).
Like-named read-outs stand apart in the source and are kept apart here. Numbered stars: 1 amine (or outer) side, 2 acyl side, 3 side chain; on linkers, the order of the positions; unused ones are H or OH. Bridge positions count the residues as written; N and C are the ends. Square brackets hold non-standard residues; d marks the D form. Peptide text beside a SMILES is read from it. I, II: the chains in the order shown. Actinocin(9to1) = Cc1c2oc3c(C)ccc(C(=O)[*:1])c3nc-2c(C(=O)[*:2])c(N)c1=O; NMeV = CN[C@H](C(=O)O)C(C)C; Sar = CNCC(=O)O

Tests used:
Type in all cases: cell-based, human
[1] = system: H1299 non-small cell lung carcinoma cell line; test: Time-lapse microscopy of cell death, motility and growth arrest after drug addition; conditions: CPT 10 uM
Experimental: (§1) Long period time-lapse microscopy: Time-lapse movies were obtained (at 20× magnification) as described by Sigal et al. (Sigal, Milo et al. 2006, supra) with an automated, incubated (including humidity and CO2 control) Leica DMIRE2 inverted fluorescence microscope and an ORCA ER cooled CCD camera (Hamamatsu Photonics). The system was controlled by ImagePro5 Plus (Media Cybernetics) software which integrated time-lapse acquisition, stage movement, and software based auto-focus. During the experiment, cells were grown and visualized in 12-well coverslip bottom plates (MatTek) coated with […] fibronectin (Sigma). For each well time lapse movies were obtained at four fields of view. Each movie was taken at a time resolution of 20 minutes and was filmed for at least three days (over 200 time points). Each time point included three images—phase contrast, red and yellow fluorescence.
Drug Materials: Camptothecin (CPT; C9911 Sigma), was dissolved in DMSO (hybri-max, D2650 Sigma) to achieve a stock solution of 10 mM. In each experiment, drug was diluted to 10 μM in a transparent growth medium (RPMI, X PenStrep, 10% FCS, w/o riboflavin, w/o phenol red, Bet Haemek). Growth medium (2 ml) was replaced by the diluted drug (2 ml) under the microscope. […]

TOP1 [2] = conditions: for effects on TOP1 (nucleolar exit, degradation, cytoplasmic accumulation): other DNA damaging drugs
Experimental: as §1
(§2) Drug Materials: Camptothecin (CPT; C9911 Sigma), was dissolved in DMSO (hybri-max, D2650 Sigma) to achieve a stock solution of 10 mM. In each experiment, drug was diluted to 10 μM in a transparent growth medium (RPMI, X PenStrep, 10% FCS, w/o riboflavin, w/o phenol red, Bet Haemek). Growth medium (2 ml) was replaced by the diluted drug (2 ml) under the microscope. The same procedure was carried out for the following drugs: Etoposide (E1383 Sigma), diluted to 33.3 μM and for Cisplatinum (P4394 Sigma) diluted to 40 μM. The stock solution for ActD (A1410 Sigma) was 1 mg/ml and was diluted to 1 μg/ml.
Image analysis of time lapse movies: A custom written image analysis tool was used developed using the Matlab image processing toolbox environment (Mathworks, Natick, Mass.). The main steps include; image correction, segmentation, tracking of the cells and automated identification of cell phenotypes (mitosis and cell death). Image background correction (flat field correction and background subtraction) was carried out as previously described (Sigal, Milo et al. 2006, supra). […] The main steps of the segmentation process are: 1) Differentiation between cells and background by global image threshold using Otsu's method (Otsu 1979, IEEE Transactions on Systems, Man, and Cybernetics 9(1): 62-66); 2) Segmentation of neighboring cells by applying the seeded watershed segmentation algorithm. Seeds were obtained by smoothening the red intensity image and usage of bright nuclei as cell seeds (by identifying local maxima)—one seed per cell; 3) Nuclei segmentation following cell segmentation; each cell was independently stretched between zero and one and a fixed threshold was used to differentiate between the cytoplasm and the nuclei; 4) Tracking of cells was performed by analyzing the movie from end to start and linking each segmented cell to the cell in the previous image with the closest centroid; 5) The automated cell death identification algorithm utilizes the morphological changes correlated with dying cells: rounding followed by blebbing and an explosion of the outer membrane or its collapse. An artificial neural network (ANN) algorithm was constructed that could identify each one of these morphological patters similar to the method previously described in (Eden 2005, IEEE, Transactions on Medical Imaging 24: 1011-1024). Briefly, two sets of images were constructed: The first contained 400 cell images in different stages of cell death and the second contained 400 live cell images. For each image, a collection of high-level image features was computed. […] This process transforms each image into a multi dimensional vector of features.

TOP1 [3] = test: Immunoblots with anti-TOP1 and anti-GFP after CPT
Experimental: Immunoblots against 20 selected proteins: Total cell lysates were prepared with RIPA buffer (Pierce) according to manufacturer's instructions. The protein concentrations were determined by BCA protein assay kit (Thermo scientific). Equal amounts of proteins were resolved on SDS-PAGE and subjected to immunoblotting analysis by using the antibodies listed below. The intensity of protein bands was quantified by using ImageJ software.
Anti-Myosin IIA (M8064) and anti-GFP (11814460001) antibodies were from Sigma and Roche, respectively.

[4] = system: YFP tagged proteins in H1299 cells; test: Temporal profiles of total fluorescence and cell-cell variability of YFP tagged proteins in response to drug
Experimental: as §1
Image analysis of time lapse movies: A custom written image analysis tool was used developed using the Matlab image processing toolbox environment (Mathworks, Natick, Mass.). The main steps include; image correction, segmentation, tracking of the cells and automated identification of cell phenotypes (mitosis and cell death). Image background correction (flat field correction and background subtraction) was carried out as previously described (Sigal, Milo et al. 2006, supra). No significant bleaching was observed (on average less than 3% over the duration of the experiment). […] The main steps of the segmentation process are: 1) Differentiation between cells and background by global image threshold using Otsu's method (Otsu 1979, IEEE Transactions on Systems, Man, and Cybernetics 9(1): 62-66); 2) Segmentation of neighboring cells by applying the seeded watershed segmentation algorithm. […]
Protein dynamics clustering: The five average population dynamics profiles depicted in FIG. 8B were generated in the following manner: The levels of each protein were smoothed using a median filter and linearly scaled between −1 and 1. The distance between every pair of proteins was measured in terms of Pearson correlation and clustering was performed using a k-means algorithm (reproducibility of results using different seeds is >99%). […]

[5] = system: thyredoxin and thyredoxin reductase; test: Nuclear/cytoplasmic localization changes of tagged proteins following drug addition
Experimental: as §1
Image analysis of time lapse movies: A custom written image analysis tool was used developed using the Matlab image processing toolbox environment (Mathworks, Natick, Mass.). […]
Nuclear localization changes following drug addition: The localization of each protein across the experiment was analyzed and the ratio of cytoplasmic to nuclear fluorescence was followed as a function of time. […] Both rapid and slow localization changes between the cytoplasm and the nucleus were detected (FIGS. 14A-C).

nucleolar proteins = test: Quantitation of nucleolar translocations of tagged proteins; conditions: 1 μg/ml
Experimental: as §2
Then, for each of the selected clones, the present inventors calculated the ratio of fluorescence intensity between the top and bottom ten percent pixels in individual nuclei and averaged over the population. Clones with a max/min change of over 20 percent in this average during the experiment were inspected manually to verify the source of change in pixel intensity distribution and were classified as clones showing nucleolar translocation.
Finally, to quantify the extent and direction (nucleoli to nucleoplasm or vise versa) of the translocation, the present inventors calculated the ratio between mean fluorescence intensity of nucleoli vs. nucleoplasm (Rncll/nuc) at the two time points were the max/min ratio was maximized and minimized. […]

DDX5 = test: Bimodal behavior of tagged DDX5 in individual cells in response to drugs; conditions: Etoposide 33.3 μM, Cis-platinum 40 μM
Experimental: as §2
Determination of ‘bimodal’ behaviors: The coefficient of variance (CV defined as the ration between the std between cells and the mean) was measured for 400 proteins for 47 hours following addition of CPT (at a 20 minute resolution) (see FIGS. 13A-B). All CVs were normalized to average 1 (CV(i,j)/mean(mean(CV)) where i is protein number (i=1 . . . 400) and j is timepoint (j=1 . . . 141)). All proteins deviating 3 standard deviations from the average normalized CV were considered as ‘bimodal’ candidates (N=59). Following manual inspection, 30 of these proteins listed in Table 4 were denoted as bimodal.

CC[C@@]1(O)C(=O)OCc2c1cc1n(c2=O)Cc2cc3ccccc3nc2-1 [CPT, Camptothecin]
time to loss of motility and growth arrest after drug addition [1]: about 10 hours | cells showing cell rounding and blebbing (morphological correlates of cell death) ([1]; after 36 hours): about 15% | timescale of decrease of total cellular fluorescence of tagged TOP1 (TOP1 [2]; CPT): under an hour | nuclear exit of tagged TOP1 (TOP1 [2]; etoposide at equivalently lethal dose, CPT at several doses): exits from the nucleus to the cytoplasm in a CPT dose dependent manner | timescale of fluorescence accumulation in the cytoplasm in the TOP1 tagged clone (TOP1 [2]; following CPT addition): ~5 h | time for TOP1 levels in the nucleoli to drop after drug addition (TOP1 [2]; tagged TOP1, individual cells): less than 2 minutes | time within which most TOP1 is degraded (TOP1 [3]): ≤ 4 h | largest changes in fluorescence ([4]; CPT 10 uM): about five | median dynamic range of response, change in fluorescence ([4]; CPT 10 uM): 1.3 fold | proteins showing a decrease in intensity in response to the drug ([4]; CPT 10 uM, 48 hours tracking): about 70% | increase of cell-cell variability (noise) following drug addition, on average ([4]; std between cells divided by mean): 30% | time to increase in nuclear/cytoplasmic ratio of thyredoxin and thyredoxin reductase ([5]; after drug addition): ≤ 8 h | proteins showing significant change in nuclear localization (>20% change in cytoplasm/nuclear fluorescence ratio) ([5]; all tagged proteins, after CPT addition): about 1%

Cc1c2oc3c(C)ccc(C(=O)N[C@@H]4C(=O)N[C@H](C(C)C)C(=O)N5CCC[C@H]5C(=O)N(C)CC(=O)N(C)[C@@H](C(C)C)C(=O)O[C@@H]4C)c3nc-2c(C(=O)N[C@@H]2C(=O)N[C@H](C(C)C)C(=O)N3CCC[C@H]3C(=O)N(C)CC(=O)N(C)[C@@H](C(C)C)C(=O)O[C@@H]2C)c(N)c1=O [actinomycinD, actinomycin-D] (I: T[dV]P[Sar][NMeV] / II: T[dV]P[Sar][NMeV]; ester I:1-I:C, II:1-II:C; linker I:N-II:N via Actinocin(9to1))
proteins with nucleolar dynamics similar to those seen with CPT (nucleolar proteins): 4 out of 5

N.N.[Cl][Pt][Cl] [cisplatin, Cisplatinum]
effects on TOP1 (nucleolar exit, degradation, cytoplasmic accumulation) (TOP1 [2]): did not show any of these effects on TOP1 | bimodal behavior of tagged DDX5 (DDX5): did not show bimodal behavior

COc1cc([C@@H]2c3cc4c(cc3[C@@H](O[C@@H]3O[C@@H]5CO[C@@H](C)O[C@H]5[C@H](O)[C@H]3O)[C@H]3COC(=O)[C@H]23)OCO4)cc(OC)c1O [etoposide, Etoposide]
nuclear exit of tagged TOP1 (TOP1 [2]): does not occur | effects on TOP1 (nucleolar exit, degradation, cytoplasmic accumulation) (TOP1 [2]): did not show any of these effects on TOP1 | bimodal behavior of tagged DDX5 (DDX5): did not show bimodal behavior
